Reference: patent publication US20060094059A1, “Methods for identifying new drug leads and new therapeutic uses for known drugs” (Odyssey Thera, Inc., priority 2004, published 2006)
Read-outs that look alike come from different tables or passages of the source.

Legend:
[1] = system: glioblastoma (U-87 MG) cells; assay: MTT proliferation assay, glioblastoma; type: cell-based; conditions: Homo sapiens, Tumor Cell Glioblastoma (U-87 MG), 120 hours, read-out: Anti-proliferative IC-50
Procedure: (§1) Cells were maintained in various media as follows: A549, LoVo and PC-3 (Ham's F12K medium with 2 mM L-glutamine and 1.5 g/L sodium bicarbonate), MIA PaCa-2 (Dulbecco's modified Eagle's medium with 4 mM L-glutamine and 4.5 g/L glucose), U87-MG (MEM+Earle's BSS). Medium for each cell line was supplemented with 10% FBS and […] Penecillin/Streptomycin. All cells were grown in incubators set at 37° C., 5% CO2. Thiazolyl Blue Tetrazolium Bromide (MTT) based proliferation assays were performed to assess the anti-proliferative activities of the compounds on these cells. Cells were seeded in 96 well plates at a density of 750 cells/well 24 hours prior to compound treatment. The cells were incubated with varying concentrations of compounds for 120 hours. […] Drug treatment was performed in 5 replicate wells. Background absorbance was established by wells containing medium but no cells. Vehicle (DMSO) only was used as control. MTT (Sigma-Aldrich, St. Louis, Mo.) was added to each well at a final concentration of 0.5 mg/ml. Following a 2 hour incubation at 37° C., medium in the wells was replaced with 0.15 ml DMSO. The plates were agitated for 15 min using a microtiter plate shaker.

[2] = system: pancreatic carcinoma (MIA PaCa-2) cells; assay: MTT proliferation assay, pancreatic; type: cell-based, Human; conditions: Tumor Cell Pancreatic (MIA PaCa-2), 120 hours, read-out: Anti-proliferative IC-50
Procedure: as §1

[3] = system: colon adenocarcinoma (LoVo) cells; assay: MTT proliferation assay, colon; type: cell-based, Human; conditions: Tumor Cell Colon (LoVo), 120 hours, read-out: Anti-proliferative IC-50
Procedure: as §1

[4] = system: non-small cell lung carcinoma (A549) cells; assay: MTT proliferation assay, NSCLC; type: cell-based, Human; conditions: Tumor Cell NSCLC (A549), 120 hours, read-out: Anti-proliferative IC-50
Procedure: as §1

PAK4:Cofilin = assay: Protein-fragment complementation assay PAK4:Cofilin; type: cell-based, human; conditions: hit in PAK4/CFL assay; drugs screened at 10 micromolar
Source text: (§2) To construct dynamic assays for protein-protein complexes, we used a protein-fragment complementation assay strategy (PCAs) in intact human cells. (A variety of other suitable assays, and reporter options, are described in detail below.) The principle of PCA is that complementary polypeptide fragments (F[1] and F[2]) of a reporter protein or enzyme will fold into an active form only if fused to two proteins which interact and bring the complementary fragments of the reporter protein into proximity. Reconstitution of the fragments of the reporter protein generates a fluorescent signal that can be quantified in intact cells, and the amount of the signal is proportional to the amount of the protein-protein complex used in constructing the assay. Given a suitable reporter type, the subcellular location of the complex can also be measured.
(§3) Reporter fragments for PCA were generated by oligonucleotide synthesis (Blue Heron Biotechnology, Bothell, Wash.), starting with the sequence of yellow fluorescent protein (YFP). First, oligonucleotides coding for polypeptide fragments YFP[1]and YFP[2] […] Next, PCR mutagenesis was used to generate the mutant fragments IFP[1] and IFP[2]. The IFP[1] fragment corresponds to YFP[1]-(F46L, F64L, M153T) and the IFP[2] fragment corresponds to YFP[2]-(V163A, S175G). […] The YFP[1], YFP[2], IFP[1] and IFP[2] fragments were amplified by PCR to incorporate restriction sites and a linker sequence, described below, in configurations that would allow fusion of a gene of interest to either the 5′- or 3′-end of each reporter fragment. The reporter-linker fragment cassettes were subcloned into a mammalian expression vector (pcDNA3.1Z, Invitrogen) that had been modified to incorporate the replication origin (oriP) of the Epstein Barr virus (EBV). […] Additionally, these vectors still retain the SV40 origin, allowing for episomal expression in cell lines expressing the SV40 large T antigen (e.g. HEK293T, Jurkat or COS).
(§4) PCA fusion constructs were prepared for a proteins known to participate in cellular pathways that have been described in the scientific literature as being linked to cancer. The selection of protein-protein complexes used, and the rationale for their use, is provided in Table 1 and the gene identifiers for the cDNAs used in assay construction are provided in Table 2. The full coding sequence for each gene of interest was amplified by PCR from a sequence-verified full-length cDNA. Resulting PCR products were column purified (Centricon), digested with appropriate restriction enzymes to allow directional cloning, and fused in-frame to either the 5′ or 3′-end of YFP[1], YFP[2], IFP[1] or IFP[2] through a linker encoding a flexible 10 amino acid peptide (Gly.Gly.Gly.Gly.Ser)2. […] Recombinants in the host strains DH5-alpha (Invitrogen, Carlsbad, Calif.) or XL1 Blue MR (Stratagene, La Jolla, Calif.) were screened by colony PCR, and clones containing inserts of the correct size were subjected to end sequencing to confirm the presence of the gene of interest and in-frame fusion to the appropriate reporter fragment. A subset of fusion constructs were selected for full-insert sequencing by primer walking. DNAs were isolated using Qiagen MaxiPrep kits (Qiagen, Chatsworth, Calif.). PCR was used to assess the integrity of each fusion construct, by combining the appropriate gene-specific primer with a reporter-specific primer to confirm that the correct gene-fusion was present and of the correct size with no internal deletions.
(§5) HEK293 cells were maintained in MEM alpha medium (Invitrogen) supplemented with 10% FBS (Gemini Bio-Products), 1% penicillin, and 1% streptomycin, and grown in a 37° C. incubator equilibrated to 5% CO2. […] Up to 100 ng of the complementary YFP or IFP-fragment fusion vectors were co-transfected using Fugene 6 (Roche) according to the manufacturer's protocol.

[5] = system: prostate adenocarcinoma (PC-3) cells; assay: MTT proliferation assay, prostate; type: cell-based, Human; conditions: Tumor Cell Prostate (PC-3), MTT, 120 hours, read-out: Anti-proliferative IC-50
Procedure: (§6) We used these methods to mine the known pharmacopeia for drugs with previously-unsuspected activity against cancer-related pathways. […] Hits from our cell-based screens were tested for antiproliferative activity in up to 5 different human tumor cell lines, as follows. First, drugs with significant activity in the cellular screen(s) were tested for their ability to block proliferation of a human tumor cell line (PC-3) at an initial concentration of 10 micromolar. For drugs with antiproliferative activity in PC-3 cells, dose-response curves to determine the IC50 for antiproliferative activity and additional tumor cell lines were tested to determine the breadth of activity. Methods for assessing the antiproliferative activity of the cell-based drug ‘hits’ are described below.
as §1

CDC42:PAK4 complexes = assay: Protein-fragment complementation assay CDC42:PAK4; type: cell-based, human; conditions: for Assay activity: hit in CDC42/PAK4 assay, drugs screened at 10 micromolar
Source text: as §2, §3, §4, §5

human tumor cell lines = assay: MTT proliferation assay and phase contrast images, cell line not given (FIGS. 5-10); type: cell-based; conditions: treated cells vs. DMSO control, cell line not named
Procedure: as §6
Cells were maintained in various media as follows: A549, LoVo and PC-3 (Ham's F12K medium with 2 mM L-glutamine and 1.5 g/L sodium bicarbonate), MIA PaCa-2 (Dulbecco's modified Eagle's medium with 4 mM L-glutamine and 4.5 g/L glucose), U87-MG (MEM+Earle's BSS). Medium for each cell line was supplemented with 10% FBS and […] Penecillin/Streptomycin. All cells were grown in incubators set at 37° C., 5% CO2. Thiazolyl Blue Tetrazolium Bromide (MTT) based proliferation assays were performed to assess the anti-proliferative activities of the compounds on these cells. Cells were seeded in 96 well plates at a density of 750 cells/well 24 hours prior to compound treatment. The cells were incubated with varying concentrations of compounds for 120 hours. Compound concentrations range from 0.03 to 100 microM (half log increments) except for alpha-Tomatine (0.001-100 microM, half log increments), Neriifolin (0.0002-100 microM) and Peruvoside (0.01-100 microM). Drug treatment was performed in 5 replicate wells. Background absorbance was established by wells containing medium but no cells. Vehicle (DMSO) only was used as control. MTT (Sigma-Aldrich, St. Louis, Mo.) was added to each well at a final concentration of 0.5 mg/ml. Following a 2 hour incubation at 37° C., medium in the wells was replaced with 0.15 ml DMSO. The plates were agitated for 15 min using a microtiter plate shaker. […] Mean absorbance values were calculated from 5 replicate wells of each drug treatment following subtraction of background absorbance from blank samples and plotted as a percentage of control.

Cofilin:LIMK2 = assay: Protein-fragment complementation assay Cofilin:LIMK2; type: cell-based, human; conditions: hit in Cofilin/LIMK2 assay; drugs screened at 10 micromolar
Source text: as §2
(§7) Reporter fragments for PCA were generated by oligonucleotide synthesis (Blue Heron Biotechnology, Bothell, Wash.), starting with the sequence of yellow fluorescent protein (YFP). First, oligonucleotides coding for polypeptide fragments YFP[1]and YFP[2] […] Next, PCR mutagenesis was used to generate the mutant fragments IFP[1] and IFP[2]. The IFP[1] fragment corresponds to YFP[1]-(F46L, F64L, M153T) and the IFP[2] fragment corresponds to YFP[2]-(V163A, S175G). […]

Chk1:CDC25C = assay: Protein-fragment complementation assay Chk1:CDC25C; type: cell-based, human; conditions: hit in CDC25C/Chk1 assay (with or without CPT not stated); drugs screened at 10 micromolar
Source text: as §2, §7

EGFR:Grb2 = assay: Cell-based assay EGFR:Grb2; set-up: species or system human; conditions: hit in EGFR/Grb2 assay; drugs screened at 10 micromolar
Source text: as §2, §7

MAX:MYC = assay: Protein-fragment complementation assay MAX:MYC; type: cell-based, human; conditions: hit in MYC/MAX assay; drugs screened at 10 micromolar
Source text: as §2, §7

BAD:BID = assay: Protein-fragment complementation assay BAD:BID; type: cell-based, human; conditions: hit in BAD/BID assay; drugs screened at 10 micromolar
Source text: as §2, §7

HSP90:Eef2k = assay: Protein-fragment complementation assay Hsp90:Eef2k; type: cell-based, human; conditions: hit in HSP90/Eef2k assay; drugs screened at 10 micromolar
Source text: as §2
as §3, with “COS). […]” for “COS).”

CDC25C:Cdc2 = assay: Protein-fragment complementation assay CDC25C:Cdc2; type: cell-based, human; conditions: hit in CDC2/CDC25C assay; drugs screened at 10 micromolar
Source text: as §2, §7

O=C(CCCN1CC=C(n2c(=O)[nH]c3ccccc32)CC1)c1ccc(F)cc1 [Droperidol]
IC50 [1]: 24600 nM | IC50 ([2]; Homo sapiens): 8800 nM | IC50 ([3]; Homo sapiens): 25800 nM | IC50 ([4]; Homo sapiens): 24300 nM | Assay activity (PAK4:Cofilin): PAK4/CFL | IC50 ([5]; Homo sapiens): 7680 nM

COC(=O)Nc1nc2ccc(C(=O)c3ccccc3)cc2[nH]1 [Mebendazole]
IC50 ([2]; Homo sapiens): 130 nM | IC50 ([3]; Homo sapiens): 70 nM | IC50 ([4]; Homo sapiens): 180 nM | Assay activity (PAK4:Cofilin): PAK4/CFL | IC50 ([5]; Homo sapiens): 270 nM

Fc1ccc(C(c2ccc(F)cc2)N2CCN(C/C=C/c3ccccc3)CC2)cc1 [Flunarizine]
Assay activity (CDC42:PAK4 complexes): CDC42/PAK4 | Assay activity (PAK4:Cofilin): PAK4/CFL,

CC(C)(C)c1ccc(C(O)CCCN2CCC(C(O)(c3ccccc3)c3ccccc3)CC2)cc1 (centres unmarked) [Terfenadine]
IC50 [1]: 380 nM | level of CDC42:PAK4 complexes (intensity of the fluorescence) (CDC42:PAK4 complexes; FIG. 3F, compared with the vehicle alone): decrease in the level | Assay activity (CDC42:PAK4 complexes): CDC42/PAK4 | IC50 ([2]; Homo sapiens): 350 nM | IC50 ([3]; Homo sapiens): 990 nM | IC50 ([4]; Homo sapiens): 550 nM | cell count (phase contrast images) (human tumor cell lines): reduced the cell count

CCCCCCCCNC(C)C(O)c1ccc(SC(C)C)cc1 (centres unmarked) [Suloctidil]
IC50 [1]: 1120 nM | Assay activity (CDC42:PAK4 complexes): CDC42/PAK4 | IC50 ([2]; Homo sapiens): 1930 nM | IC50 ([3]; Homo sapiens): 1130 nM | IC50 ([4]; Homo sapiens): 2230 nM | Assay activity (PAK4:Cofilin): PAK4/CFL, | IC50 ([5]; Homo sapiens): 1850 nM

CC(C)c1c(C(=O)Nc2ccccc2)c(-c2ccccc2)c(-c2ccc(F)cc2)n1CC[C@@H](O)C[C@@H](O)CC(=O)O [Atorvastatin]
IC50 [1]: 4600 nM | Assay activity (Cofilin:LIMK2): CFL1/LIMK2, | Assay activity (PAK4:Cofilin): CFL1/PAK4 | cell count (phase contrast images) (human tumor cell lines): decreased the cell count

CO[C@H]1[C@H](O)[C@H](O[C@H]2CC[C@@]3(C)[C@H](CC[C@@H]4[C@@H]3CC[C@]3(C)[C@@H](C5=CC(=O)OC5)CC[C@]43O)C2)O[C@@H](C)[C@@H]1O [Neri$$olin, Neriifolin]
Assay activity (CDC42:PAK4 complexes): CDC42/PAK4 | IC50 [2]: 4 nM | IC50 [3]: 18 nM | IC50 [4]: 5 nM | Assay activity (PAK4:Cofilin): PAK4/CFL, | IC50 [5]: 11 nM

CC1(C)CCC2=C(O1)c1ccccc1C(=O)C2=O [beta-Lapachone]
Assay activity (Chk1:CDC25C): CDC25C/Chk1 | IC50 [1]: 860 nM | IC50 ([2]; Homo sapiens): 377 nM | IC50 ([3]; Homo sapiens): 1400 nM | IC50 ([4]; Homo sapiens): 230 nM | IC50 ([5]; Homo sapiens): 630 nM | Assay activity (EGFR:Grb2): EGFR/Grb2,

CN[C@H]1CC[C@@H](c2ccc(Cl)c(Cl)c2)c2ccccc21 [Sertraline]
Assay activity (MAX:MYC): MAX/MYC | Assay activity (BAD:BID): BAD/BID, | Assay activity (HSP90:Eef2k): Eef2K/hsp90, | cell count (phase contrast images) (human tumor cell lines): reduced the cell count | Assay activity (EGFR:Grb2): EGFR/Grb2, | Assay activity (CDC25C:Cdc2): CDC2/CDC25C,
